Data: patent US11299460B2, “MDM2 inhibitor, preparation method therefor, pharmaceutical composition thereof and use thereof” (SHANGHAI LONGWOOD BIOPHARMACEUTICALS CO., LTD., priority 2018, dated 2022)

Legend:
[1] = tested on: p21 transcripts in SJSA-1 cells; assay: p21 assay (QRT-PCR of p21 transcripts in SJSA-1 cells); type: cell-based, human; settings: Homo sapiens, SJSA-1, 7 h, cell assay (SJSA-1 cell); p21 induction, 7 hours incubation
Source text: Inhibition of the interaction between hMDM2 and p53 results in the activation of the p53 pathway via the stabilization and accumulation of p53. P53 activates the transcription of many genes, one of which is p21<WAFT/CIP1>. To evaluate the potency of hMDM2 inhibitors, quantitative reverse transcription polymerase chain reaction (QRT PCR) was used to measure the level of p21 transcripts of compound related cells relative to that of control cells treated with dimethyl sulfoxide (DMSO).
In the first day, SJSA-1 cells were inoculated into 100 μL growth medium (RPMI1640; 10 mM HEPES; 1 mM sodium pyruvate; 1× penicillin streptomycin glutamine (PSQ) and 10% FBS, all reagents were obtained from Invitrogen) at a density of 3×10^4 cells in 96-well cell culture plate. The cells were cultured overnight at 37° C. and 5% CO2 atmosphere.
In the second day, hMDM2 inhibitor was gradient diluted in DMSO(Sigma-Aldrich; St. Louis, Mo.). 5 μl of each compound dilution were added into 245 μl filtered assay medium (RPMI1640, 10% FBS, 10 mM HEPES, 1 mM sodium pyruvate and 1×PSQ). Or the assay was conducted with the presence of 10% human serum or 10% mouse serum, or without serum. Growth medium was removed from inoculated SJSA-1 cell culture plate and replaced by 100 μL assay medium for each well. Then 100 μL culture medium containing diluted inhibitor was added into each well to a final volume 200 μL. The final concentration of the compound was in the range of 0.049 μm-50 μm by dose titration with DMSO as control. The cells were incubated at 37° C. and 5% CO2 for 7 hours with the presence of inhibitor. When incubation was completed, growth medium was removed from cells and the plate was stored at −80° C.
In the third day, giagen BioRobot Universal workstation was used to purify total RNA from SJSA-1 cells treated with inhibitor and DMSO respectively. The purification procedure herein was according to RNeasy96BioRobot8000 test kit provided by Qiagen, Valencia, Calif.
To measure the level of existing p21 transcripts, QRT-PCR was introduced. The levels of p21, housekeeping genes and glyceraldehyde 3-phosphate dehydrogenase (GAPDH) were determined by the total RNA from each inhibitor- or DMSO-treated well by duplicated test. The QRT-PCR reaction was performed on the Applied Biosystems prism 7900ht instrument using the relative quantitative (ΔΔ Ct) method according to the following cycle conditions: 48° C. for 30 minutes, then 95° C. for 10 minutes, and then was 40 cycles consisting of 95° C. for 15 seconds and 60° C. for 1 minute. The data were analyzed by using Applied Biosystems SDS2.2 software, with GAPDH as inner control and DMSO treated samples as calibrators. SDS2.2 software calculated the relative quantification (RQ) or increased fold of p21 level relative to DMSO control for each treated sample. The maximum (100%) p21 induction fold was defined by the maximum value of the fitting curve of the reference compound. The p21 induction fold of each inhibitor dose tested was converted to a value representing the percentage of the maximum value. XLFit software (ID business solutions, Alameda, Calif.) was used to make dose-response curve to calculate the IC50 transit value of each inhibitor tested.

GST-hMDM2 (aa1-188) = target: T1, GST-hMDM2 (aa1-188) (Homo sapiens, UniProt Q00987); assay: Homogeneous time resolved fluorometry (HTRF assay), hMDM2/p53 interaction; type: binding; settings: HTRF analysis; GST-hMDM2 (aa1-188) / biotinylated-p53 (aa1-83)
T1 construct: The amino acid residues 1-188 of human MDM2 were expressed as GST-hMDM2 fusion protein; made in house; host or cells: E. coli
T1 sequence (Q00987 1-188): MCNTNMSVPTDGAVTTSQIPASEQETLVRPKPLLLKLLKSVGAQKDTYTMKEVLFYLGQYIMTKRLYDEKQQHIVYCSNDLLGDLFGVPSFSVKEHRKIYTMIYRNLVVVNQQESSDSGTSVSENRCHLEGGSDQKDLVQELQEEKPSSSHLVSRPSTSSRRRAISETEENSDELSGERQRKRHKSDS
Method: Residues 1-83 of human p53 were expressed as avitag <TM>-trxa-6×his fusion protein (biotinlabelled p53) in E. coli. Each protein was separated from cell homogenate by affinity chromatography.
Specifically, 10 μL GST-hMDM2 was incubated with 10 uL diluted compound in 10% DMSO for 20 minutes at room temperature. 20 μL biotinlabelled-p53 was added to the mixture of GST-hMDM2 and then incubated at room temperature for 60 min. A 10 μL detection buffer consisting of SA-XLent, anti-GST cavernous compound antibody and KF was added to the reaction solution consisting of GST-hMDM2, biotinlabelled-p53 and the compound and was placed at room temperature to achieve equilibrium and maintained for more than 4 h. The final concentration of DMSO in the reaction solution was 2%. Time resolved fluorescence were measured on a microplate multi label reader. The inhibition percentage was calculated relative to nutlin-3.

| SMILES | IC50 [1] | IC50 (GST-hMDM2 (aa1-188)) |
| --- | --- | --- |
| COc1cc(C(=O)O)ccc1NC(=O)C[C@@]1(C)C[C@H](c2cccc(Cl)c2)[C@@H](c2ccc(Cl)cc2)N([C@H](C[S@](=O)(=NC(N)=O)C(C)C)C(C)C)C1=O [Compound 054] | < 1 µM | < 0.01 µM |
| CC(C)[C@@H](CS(=O)(=NC(=O)N(C)C)C(C)C)N1C(=O)[C@@](C)(CC(=O)O)C[C@H](c2cccc(Cl)c2)[C@H]1c1ccc(Cl)cc1 (stereo partly shown) [Compound 045] | < 1 µM | < 0.01 µM |
| CC(C)[C@@H](CS(=N)(=O)C(C)C)N1C(=O)[C@@](C)(CC(=O)Nc2cccc(C(F)(F)F)c2)C[C@H](c2cccc(Cl)c2)[C@H]1c1ccc(Cl)cc1 (stereo partly shown) [Compound 016] | 1 to 10 µM | > 0.1 µM |
| CC(C)[C@@H](CS(=O)(=NC#N)C(C)C)N1C(=O)[C@@](C)(CC(=O)O)C[C@H](c2cccc(Cl)c2)[C@H]1c1ccc(Cl)cc1 (single isomer, unassigned) [Compound 006] | < 1 µM | < 0.01 µM |
| CC(C)[C@@H](CS(=N)(=O)C(C)C)N1C(=O)[C@@](C)(CC(=O)Nc2ccc(F)cc2Br)C[C@H](c2cccc(Cl)c2)[C@H]1c1ccc(Cl)cc1 (stereo partly shown) [Compound 014] | 1 to 10 µM | > 0.1 µM |
| COc1cc(NC(=O)C[C@@]2(C)C[C@H](c3cccc(Cl)c3)[C@@H](c3ccc(Cl)cc3)N([C@H](C[S@](=O)(=NC(C)=O)C(C)C)C(C)C)C2=O)ccc1C(=O)O [Compound 042] | < 1 µM | < 0.01 µM |
| COc1ccc(S(=O)(=O)NC(=O)C[C@@]2(C)C[C@H](c3cccc(Cl)c3)[C@@H](c3ccc(Cl)cc3)N([C@H](CS(=N)(=O)C(C)C)C(C)C)C2=O)cc1 (stereo partly shown) [Compound 023] | < 1 µM | 0.01 to 0.1 µM |

Now from value to compound:

| IC50 [1] | IC50 (GST-hMDM2 (aa1-188)) | SMILES |
| --- | --- | --- |
| 1 to 10 µM | 0.01 to 0.1 µM | CC(C)[C@@H](CS(=N)(=O)C(C)C)N1C(=O)[C@@](C)(CC(=O)NS(=O)(=O)c2ccc(C#N)cc2)C[C@H](c2cccc(Cl)c2)[C@H]1c1ccc(Cl)cc1 (stereo partly shown) [Compound 024] |
| < 1 µM | 0.01 to 0.1 µM | CC(C)[C@@H](CS(=O)(=O)C(C)C)N1C(=O)[C@@](C)(CC(=O)NS(=N)(=O)C2(C)CC2)C[C@H](c2cccc(Cl)c2)[C@H]1c1ccc(Cl)cc1 (stereo partly shown) [Compound 028A] |
| < 1 µM | < 0.01 µM | CN=S(=O)(C[C@H](C(C)C)N1C(=O)[C@@](C)(CC(=O)O)C[C@H](c2cccc(Cl)c2)[C@H]1c1ccc(Cl)cc1)C(C)C (stereo partly drawn) [Compound 003, 2-((3R,5R,6S)-5-(3-chlorophenyl)-6-(4-chlorophenyl)-3-methyl-1-((2S)-3-methyl-1-(N-methyl-2-propylsulfonamido)butyl-2-)-2-oxo-piperidine-3-yl)acetic acid] |
| < 1 µM | < 0.01 µM | CC(C)[C@@H](CS(=N)(=O)C(C)C)N1C(=O)[C@@](C)(CC(=O)O)C[C@H](c2cccc(Cl)c2)[C@H]1c1ccc(Cl)cc1 (stereo partly shown) [Compound 001] |
